Entries after “also recorded” stand apart in the source; their conditions may differ.
Key:
[1] = MSOT phantom measurement of photoacoustic signal; assay type: physicochemical; settings: 680-900 nm; for Relative PA Quantum yield (ϕP): gradient of unmixed PA signal vs concentration in phantom, arbitrary ratios; for PA signal / photoacoustic activity in phantoms: phantom, compared among the 5 photosensitizers
Protocol: In order to verify the PA activity of the photosensitizers under controlled conditions, phantom measurements for all the contrast agents were performed, in the 680-900 nm wavelength range, each at 5 different concentrations.
All phantom and in vivo mouse imaging experiments were performed using a real-time multispectral optacoustic tomographic (MSOT) imaging system; inVision 128 (iThera Medical GmbH, Neuherberg, Germany).
The phantom was made of polyurethane, cylindrical in shape with a diameter of 2 cm, which was specially designed to mimic the shape, size and optical properties of the mouse (iThera Medical GmbH, Neuherberg, Germany). In addition, it had 2 inner cylindrical channels, each with diameter of 3 mm, one for holding the control medium and the other for holding the dissolved contrast agent in the same medium, to measure PA signal compared to the control medium, as shown in FIG. 2A.
Optical excitation was provided by an optical parametric oscillator (OPO) with a tunable near infra-red (NIR) wavelength range from 680 nm to 980 nm, which is in turn pumped by a Q-switched Nd:YAG laser with a pulse duration of 10 ns and repetition rate of 10 Hz. Light was delivered by a fiber bundle divided into 10 output arms to illuminate the sample from multiple angles around the imaging plane.
Photoacoustic (PA) signals were acquired using a 128-element concave transducer array spanning a circular arc of 270°. […] One transverse image slice was acquired from each laser pulse, resulting in a frame-rate of 10 Hz.
During image acquisition, the sample is translated through the transducer array along its axis across the volume ROI, in order to capture the corresponding transverse image slices. Data from multiple transverse slices across the channel portion which contains the probe and control were recorded. Excitation wavelength scan from 680 to 900 nm with an interval of 10 nm for each transverse slice was applied, and the averaged PA signals from 10 frames for each wavelength and position were recorded.
In addition, PA signal for each contrast agent was spectrally unmixed via linear regression. This allowed isolation of the individual contribution of the contrast agent of interest that may be plotted as a function of concentration, which in turn was used to produce a straight line of best fit based on least-squares regression, for each contrast agent.
This gradient was thereby defined by the inventors as a form of relative PA quantum yield (ϕP), a kind of measure of the efficiency of the conversion of light absorption into photoacoustic signal. This is analogous to fluorescence quantum yield (ϕ), which measures efficiency of the conversion of light absorption into fluorescence emission.
The numbers shown are not absolute values, but arbitrary ratios, which reflect the relative PA strength of one compound against that of another.

[2] = Concentration of drug in the blood calculated from pre-clinical in vivo dose from literature; settings: assuming volume of blood in mice 2 ml
[3] = literature value; cited from earlier work
[4] = literature value; cited from earlier work; remark: listed apart in the source
[5] = UV absorbance measurement 680-900 nm; assay type: physicochemical; settings: 680 nm to 900 nm, normalized absorbance, compared among the 5 photosensitizers
Protocol: In order to obtain information about optical absorption properties of the contrast agents, their wavelength-dependent absorption spectra at known concentrations were measured using a spectrophotometer.
In the experiments carried out, wavelength-dependent absorption spectrum of the contrast agents was measured from 680 nm to 900 nm using a spectrophotometer (DU 730, Beckman Coulter), which in turn was used as an input spectrum for multispectral post-processing of photoacoustic signals.
The spectra were normalized to obtain the concentration-independent normalized absorbance (directly proportional to extinction coefficient) as a function of wavelength for each contrast agent (FIG. 1), based on Beer-Lambert law: A(λ)=ln(Io/I)=ε(λ)cl
where A(λ) is the measured wavelength-dependent absorbance, I0 is the incident light intensity, I is the transmitted light intensity, ε(2) is the wavelength-dependent extinction coefficient of the contrast agent, c is the concentration of the contrast agent and l is the path length of the quartz cuvette (1 cm).

[6] = In vivo longitudinal MSOT monitoring of probe biodistribution in mouse xenograft model; settings: 0.21 mg/kg tail vein; for time of peak accumulation post injection: tumor site and organs
Protocol: For in vivo imaging, ultrasound gel was applied on the mouse skin surface, and measurements were recorded in temperature-controlled water for good acoustic coupling. An animal holder with a thin polyethylene membrane was used to prevent direct contact between the mouse and the water.
Xenograft mice models were established by injecting subcutaneously into the right flank of mouse, 0.2 mL of cell suspension containing about 5×10^6 to 6×10^6 MCF-7, a human metastatic breast cancer cell line or OSCC, a human oral squamous carcinoma cell line and matrigel (BD biosciences) in 1:1 volume ratio. When the tumor volume reached a palpable size, the mouse was used for in vivo PA imaging.
ZnPc at a dosage of 0.21 mg/kg was injected via a catheter into the tail vein of a subcutaneous tumor bearing mice anaesthetized under isoflurane and the probe biodistribution or uptake was monitored over time in various organs of liver, spleen, kidneys, intestines and tumor using photoacoustic imaging. Before image acquisition, a volume ROI consisting of transverse slices with a step size of 0.3 mm spanning from the liver to the lower abdomen was selected by manual inspection of live MSOT images, and the 6 laser excitation wavelengths of 680, 700, 750, 800, 850 and 900 nm were selected for correspondence with the major turning points in the absorption spectra of ZnPc, oxy-haemoglobin and deoxy-haemoglobin. Multispectral imaging was then performed with 10 signal averages per wavelength per transverse slice, before injection, during injection and 1, 3, 5, and 24 hr post-injection.
Images were reconstructed using a model-based approach as discussed in Rosenthal, A. et al. (Rosenthal, A. et al., Fast semi-analytical model-based acoustic inversion for quantitative optoacoustic tomography. IEEE Trans. Med. Imag. 29, 1275-1285 (2010)) for offline analysis. After image reconstruction, spectral unmixing was performed to resolve individual components from different chromophores in the system. For each pixel in the image, the method fits the total measured optoacoustic spectrum to the known absorption spectra of the individual chromophores, based on least-squares linear regression.
A volume ROI consisting of transverse slices spanning from the liver to the lower abdomen was scanned, and maximum intensity projections (MIPs) based on these slices were constructed for image analysis.
For the later time points, this background subtraction was not possible, as the animal was removed and placed in the MSOT system repeatedly, with repositioning, in order to avoid overdosage of isoflurane for the entire 24-hour duration.

Relative PA Quantum yield (ϕP) [1]	Concentration of drug in the blood [2] [µM]	tmax, time of peak concentrations ([6]; MIPs t=10 to 60 mins) [h]	time to clearance ([6]; MSOT signal) [h]	time of peak tumor-to-muscle ratio of MSOT signal ([6]; n=4) [h]	time to localization at the tumor post injection ([6]; tumor bearing mice) [min]	time of peak accumulation post injection [6] [h]	time of peak accumulation post injection ([6]; listed as zinc phthalocyanine)	Compound	Fluorescence Quantum Yield (ϕF) [3]	Singlet Oxygen Quantum Yield (ϕΔ) [4]	Relative PA Quantum yield (ϕP) ([1]; listed as zinc pthalocyanine)	PA signal / photoacoustic activity in phantoms [1]	PA signal / photoacoustic activity in phantoms ([1]; listed as zinc phthalocyanine)	PA signal / photoacoustic activity in phantoms ([1]; listed as zinc pthalocyanine)	overall absorbance in the NIR region [5]	organ biodistribution of MSOT signal ([6]; liver, spleen, kidneys, intestines, tumor)
0.18	181.40	–	–	–	–	–	–	O=C1C(=C2C(O)=CC(=[N+](Cc3ccccc3)Cc3ccccc3)C=C2O)C([O-])=C1c1c(O)cc(N(Cc2ccccc2)Cc2ccccc2)cc1O [Sq, 2,4-bis[4-(N,N-dibenzylamino)-2,6-dihydroxyphenyl]squaraine]	0.037 [27]	0.61-0.74 [28]	–	–	–	–	–	–
–	3.63	1	≤ 24	1	≤ 10	1	around 1 hour	[Zn+2].c1ccc2c(c1)-c1nc-2nc2[n-]c(nc3nc([n-]c4nc(n1)-c1ccccc1-4)-c1ccccc1-3)c1ccccc21 [ZnPc, zinc phthalocyanine]	0.06 [23]	0.62 [23]	highest relative photoacoustic quantum yield	strongest PA signal in phantoms	highest photoacoustic activity	strongest photoacoustic signal	highest overall absorbance	strong in vivo MSOT signal of ZnPc was detected in the reticuloendothelial system (liver, spleen), intestines and tumor site within the first hour after injection; also recorded: high concentrations were found in the liver and intestines up to the 3-hour time point, whereas renal signal was much weaker in comparison

Second part, the compound before the results:

Compound	Relative PA Quantum yield (ϕP) [1]	Concentration of drug in the blood [2] [µM]	tmax, time of peak concentrations ([6]; MIPs t=10 to 60 mins) [h]	time to clearance ([6]; MSOT signal) [h]	time of peak tumor-to-muscle ratio of MSOT signal ([6]; n=4) [h]	time to localization at the tumor post injection ([6]; tumor bearing mice) [min]	time of peak accumulation post injection [6] [h]	time of peak accumulation post injection ([6]; listed as zinc phthalocyanine)	Fluorescence Quantum Yield (ϕF) [3]	Singlet Oxygen Quantum Yield (ϕΔ) [4]	Relative PA Quantum yield (ϕP) ([1]; listed as zinc pthalocyanine)	PA signal / photoacoustic activity in phantoms [1]	PA signal / photoacoustic activity in phantoms ([1]; listed as zinc phthalocyanine)	PA signal / photoacoustic activity in phantoms ([1]; listed as zinc pthalocyanine)	overall absorbance in the NIR region [5]	organ biodistribution of MSOT signal ([6]; liver, spleen, kidneys, intestines, tumor)
CN(C)c1ccc2nc3ccc(=[N+](C)C)cc-3sc2c1 [MB, methylene blue]	0.029	1337.00	–	–	–	–	–	–	0.02 [23]	0.55 [23]	–	–	–	–	–	–
C=CC1=C(C)c2cc3[nH]c(cc4nc(cc5[nH]c(cc1n2)c(C)c5CCC(=O)O)C(CCC(=O)O)=C4C)c(C)c3C=C [PpIX, protoporphyrin IX]	–	88.88	–	–	–	–	–	–	–	–	–	–	–	–	–	–
chlorin e6 [Ce6]	0.036	41.90	–	–	–	–	–	–	0.19 [23]	0.65 [23]	–	–	–	–	–	–
